Laboratory results: patent US20070149535A1, “Protein kinase inhibitors” (ONCALIS AG, priority 2004, published 2007)

Experiments:
Assay in all cases: Yeast growth assay, specificity profiling
Type in all cases: cell-based
Set-up in all cases: key: “−” indicates no growth restoration i.e. no activity against the particular kinase; “+”, “++”, and “+++” indicate activity detected by restoration of growth, classified into three categories of potency; “+”, “++”, and “+++” indicate activity detected by restoration of growth, classified into three categories of potency; “+”, “++”, and “+++” indicate activity detected by restoration of growth, classified into three categories of potency
Conditions in all cases: 7 concentrations between 0.2 and 100 μM
PDGFRb = molecular target: T1, PDGFRb (Homo sapiens, UniProt P09619)
T1 construct: expressed in transfected cells; host or cells: yeast
How it was run: (§1)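 Read-out: rescue of yeast growth, scored − (none) to +++ by maximal restoration level and concentration at which it occurs. Galactose induces RTK expression from plasmid, which inhibits growth; glucose pre-culture represses it. 7-point titration, 0.2–100 μM.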

PDGFRa = molecular target: T2, PDGFRa (Homo sapiens, UniProt P16234)
T2 construct: expressed in transfected cells; host or cells: yeast
T2 sequence (P16234 24-1089): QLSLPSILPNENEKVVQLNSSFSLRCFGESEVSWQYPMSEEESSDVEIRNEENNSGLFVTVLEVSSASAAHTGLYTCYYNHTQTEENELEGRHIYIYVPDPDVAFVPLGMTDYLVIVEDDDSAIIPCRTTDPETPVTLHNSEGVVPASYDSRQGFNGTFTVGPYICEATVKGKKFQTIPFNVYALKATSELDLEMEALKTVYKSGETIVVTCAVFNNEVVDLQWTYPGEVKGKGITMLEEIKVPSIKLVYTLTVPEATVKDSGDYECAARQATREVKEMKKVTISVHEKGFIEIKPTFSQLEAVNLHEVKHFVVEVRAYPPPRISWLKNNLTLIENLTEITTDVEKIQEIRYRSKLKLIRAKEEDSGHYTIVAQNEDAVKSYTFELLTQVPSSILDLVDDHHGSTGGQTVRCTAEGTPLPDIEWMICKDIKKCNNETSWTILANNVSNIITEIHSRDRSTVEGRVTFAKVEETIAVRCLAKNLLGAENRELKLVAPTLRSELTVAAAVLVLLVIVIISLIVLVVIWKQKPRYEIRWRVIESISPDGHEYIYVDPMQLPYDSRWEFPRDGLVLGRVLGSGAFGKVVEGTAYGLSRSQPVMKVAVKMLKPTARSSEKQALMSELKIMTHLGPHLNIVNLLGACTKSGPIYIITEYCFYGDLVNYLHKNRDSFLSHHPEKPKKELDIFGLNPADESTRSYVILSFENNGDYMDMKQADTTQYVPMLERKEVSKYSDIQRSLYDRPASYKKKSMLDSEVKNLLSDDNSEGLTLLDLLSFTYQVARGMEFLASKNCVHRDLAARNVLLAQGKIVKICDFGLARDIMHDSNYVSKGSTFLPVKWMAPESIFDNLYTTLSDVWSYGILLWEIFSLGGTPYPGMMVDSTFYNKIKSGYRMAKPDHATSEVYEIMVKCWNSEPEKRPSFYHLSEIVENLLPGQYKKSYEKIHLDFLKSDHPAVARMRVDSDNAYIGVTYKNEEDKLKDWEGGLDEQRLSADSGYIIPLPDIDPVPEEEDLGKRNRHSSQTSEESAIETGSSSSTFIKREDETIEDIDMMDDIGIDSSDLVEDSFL
How it was run: as §1

FGFR-4 = molecular target: T3, FGFR-4 (Homo sapiens, UniProt P22455)
T3 construct: expressed in transfected cells; host or cells: yeast
T3 sequence (P22455 22-802): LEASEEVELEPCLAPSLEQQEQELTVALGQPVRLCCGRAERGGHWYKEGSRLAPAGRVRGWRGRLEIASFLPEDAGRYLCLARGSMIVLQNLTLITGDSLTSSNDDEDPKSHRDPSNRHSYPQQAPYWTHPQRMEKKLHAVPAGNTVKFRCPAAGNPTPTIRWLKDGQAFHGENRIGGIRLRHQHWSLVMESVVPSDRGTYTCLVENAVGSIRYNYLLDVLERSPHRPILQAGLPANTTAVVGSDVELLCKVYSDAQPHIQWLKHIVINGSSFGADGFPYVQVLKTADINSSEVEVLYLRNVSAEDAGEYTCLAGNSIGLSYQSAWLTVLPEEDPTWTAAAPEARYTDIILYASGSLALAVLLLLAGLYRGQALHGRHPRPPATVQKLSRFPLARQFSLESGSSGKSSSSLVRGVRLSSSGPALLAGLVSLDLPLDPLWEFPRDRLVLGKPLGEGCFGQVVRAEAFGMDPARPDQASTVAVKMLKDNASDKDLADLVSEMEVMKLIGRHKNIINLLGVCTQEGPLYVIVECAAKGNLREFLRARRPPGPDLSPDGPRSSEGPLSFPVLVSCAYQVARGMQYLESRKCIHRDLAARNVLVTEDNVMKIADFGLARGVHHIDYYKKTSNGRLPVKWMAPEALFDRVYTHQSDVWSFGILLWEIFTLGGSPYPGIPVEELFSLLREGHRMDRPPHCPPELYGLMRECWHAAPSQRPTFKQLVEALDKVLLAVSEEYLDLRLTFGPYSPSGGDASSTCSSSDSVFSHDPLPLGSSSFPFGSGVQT
How it was run: as §1

FGFR-2 = molecular target: T4, FGFR-2 (Homo sapiens, UniProt P21802)
T4 construct: expressed in transfected cells; host or cells: yeast
T4 sequence (P21802 22-821): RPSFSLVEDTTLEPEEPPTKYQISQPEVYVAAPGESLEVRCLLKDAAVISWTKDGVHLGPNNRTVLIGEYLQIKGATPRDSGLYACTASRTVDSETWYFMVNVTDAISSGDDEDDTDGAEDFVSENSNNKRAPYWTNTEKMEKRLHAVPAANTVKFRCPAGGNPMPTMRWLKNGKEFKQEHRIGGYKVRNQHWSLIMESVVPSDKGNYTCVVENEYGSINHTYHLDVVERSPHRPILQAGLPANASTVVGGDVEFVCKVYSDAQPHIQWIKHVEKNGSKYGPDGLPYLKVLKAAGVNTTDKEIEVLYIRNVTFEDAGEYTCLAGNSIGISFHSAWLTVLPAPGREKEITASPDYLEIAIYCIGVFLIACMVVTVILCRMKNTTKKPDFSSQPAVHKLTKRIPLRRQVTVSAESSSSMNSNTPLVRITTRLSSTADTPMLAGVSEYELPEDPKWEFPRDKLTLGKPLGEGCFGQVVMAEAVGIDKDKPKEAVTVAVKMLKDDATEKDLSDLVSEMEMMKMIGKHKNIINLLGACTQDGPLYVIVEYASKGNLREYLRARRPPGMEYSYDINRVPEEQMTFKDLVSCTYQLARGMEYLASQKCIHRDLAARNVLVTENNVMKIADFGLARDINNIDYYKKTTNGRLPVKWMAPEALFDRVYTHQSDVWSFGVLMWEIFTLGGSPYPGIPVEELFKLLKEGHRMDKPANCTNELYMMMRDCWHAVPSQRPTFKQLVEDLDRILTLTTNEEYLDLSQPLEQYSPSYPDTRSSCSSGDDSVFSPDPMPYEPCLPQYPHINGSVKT
How it was run: as §1

CSF-1R = molecular target: T5, CSF-1R (Homo sapiens, UniProt P07333)
T5 construct: expressed in transfected cells; host or cells: yeast
T5 sequence (P07333 20-972): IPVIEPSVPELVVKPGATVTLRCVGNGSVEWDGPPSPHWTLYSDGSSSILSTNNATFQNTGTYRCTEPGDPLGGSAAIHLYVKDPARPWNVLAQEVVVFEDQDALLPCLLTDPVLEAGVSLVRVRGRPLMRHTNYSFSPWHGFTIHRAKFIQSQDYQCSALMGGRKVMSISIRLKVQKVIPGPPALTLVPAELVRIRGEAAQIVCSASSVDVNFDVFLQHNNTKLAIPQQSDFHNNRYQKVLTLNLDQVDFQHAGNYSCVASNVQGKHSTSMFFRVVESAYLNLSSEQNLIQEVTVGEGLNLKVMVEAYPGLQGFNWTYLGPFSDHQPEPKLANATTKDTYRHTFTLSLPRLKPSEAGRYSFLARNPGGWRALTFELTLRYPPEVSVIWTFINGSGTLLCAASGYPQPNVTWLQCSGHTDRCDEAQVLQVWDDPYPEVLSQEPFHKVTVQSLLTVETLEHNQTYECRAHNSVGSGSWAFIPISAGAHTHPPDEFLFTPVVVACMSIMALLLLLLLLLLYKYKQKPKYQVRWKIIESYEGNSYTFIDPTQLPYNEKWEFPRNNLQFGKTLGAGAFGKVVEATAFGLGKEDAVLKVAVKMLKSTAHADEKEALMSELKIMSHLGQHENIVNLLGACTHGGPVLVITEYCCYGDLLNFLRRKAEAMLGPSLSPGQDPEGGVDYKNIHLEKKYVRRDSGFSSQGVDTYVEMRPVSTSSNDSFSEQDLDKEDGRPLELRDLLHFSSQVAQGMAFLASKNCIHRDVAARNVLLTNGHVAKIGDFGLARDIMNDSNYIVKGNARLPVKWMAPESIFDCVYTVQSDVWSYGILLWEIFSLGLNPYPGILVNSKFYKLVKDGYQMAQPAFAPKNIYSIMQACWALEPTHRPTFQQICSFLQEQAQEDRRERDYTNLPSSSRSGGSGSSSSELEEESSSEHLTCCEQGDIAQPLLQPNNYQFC
How it was run: as §1

FGFR-1 = molecular target: T6, FGFR-1 (Homo sapiens, UniProt P11362)
T6 construct: expressed in transfected cells; host or cells: yeast
How it was run: as §1

KIT = molecular target: T7, KIT (Homo sapiens, UniProt P10721)
T7 construct: expressed in transfected cells; host or cells: yeast
T7 sequence (P10721 26-976): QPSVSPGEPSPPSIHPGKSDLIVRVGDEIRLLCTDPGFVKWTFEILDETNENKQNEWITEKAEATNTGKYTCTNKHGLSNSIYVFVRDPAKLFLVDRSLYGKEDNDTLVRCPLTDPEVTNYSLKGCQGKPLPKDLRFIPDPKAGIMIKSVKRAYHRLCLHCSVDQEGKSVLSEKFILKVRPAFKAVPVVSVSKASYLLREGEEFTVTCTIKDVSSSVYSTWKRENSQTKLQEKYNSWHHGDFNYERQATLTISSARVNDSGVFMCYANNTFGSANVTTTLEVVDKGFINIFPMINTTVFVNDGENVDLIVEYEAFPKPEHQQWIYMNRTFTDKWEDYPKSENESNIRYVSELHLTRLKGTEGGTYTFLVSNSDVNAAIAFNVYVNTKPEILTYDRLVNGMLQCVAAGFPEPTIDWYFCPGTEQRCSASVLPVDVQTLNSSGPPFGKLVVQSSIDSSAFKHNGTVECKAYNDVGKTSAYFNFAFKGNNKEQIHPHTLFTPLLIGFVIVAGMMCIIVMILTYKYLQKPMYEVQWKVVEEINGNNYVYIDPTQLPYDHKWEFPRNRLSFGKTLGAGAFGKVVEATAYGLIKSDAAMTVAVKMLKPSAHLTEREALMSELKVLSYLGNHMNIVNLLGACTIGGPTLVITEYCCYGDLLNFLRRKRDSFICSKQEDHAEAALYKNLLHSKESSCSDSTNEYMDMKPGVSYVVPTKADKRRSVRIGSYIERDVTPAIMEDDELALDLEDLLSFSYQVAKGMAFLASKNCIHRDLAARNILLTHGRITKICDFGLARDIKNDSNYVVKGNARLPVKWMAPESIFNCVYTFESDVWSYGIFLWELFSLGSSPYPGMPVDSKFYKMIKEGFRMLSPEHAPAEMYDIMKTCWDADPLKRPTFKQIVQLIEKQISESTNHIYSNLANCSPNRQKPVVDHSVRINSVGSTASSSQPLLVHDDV
How it was run: as §1

SMILES	PDGFRb growth restoration (PDGFRb)	PDGFRa growth restoration (PDGFRa)	FGFR-4 growth restoration (FGFR-4)	FGFR-2 growth restoration (FGFR-2)	CSF-1R growth restoration (CSF-1R)	FGFR-1 growth restoration (FGFR-1)	KIT growth restoration (KIT)
Cc1nccn2c(Nc3ccccc3)c(-c3ccccc3)nc12 [compound 39, (8-Methyl-2-phenyl-imidazo[1,2-a]pyrazin-3-yl)-phenyl-amine]	−	−	−	−	−	−	−
Cc1nccn2c(Nc3ccc(F)c(F)c3)c(-c3ccccc3)nc12 [compound 45, (3,4-Difluoro-phenyl)-(8-methyl-2-phenyl-imidazo[1,2-a]pyrazin-3-yl)-amine]	−	−	−	−	−	−	−
c1ccc(Nc2c(-c3ccccc3)nc3cnccn23)cc1 [compound 23, Phenyl-(2-phenyl-imidazo[1,2-a]pyrazin-3-yl)-amine]	−	−	−	−	−	−	−
Cc1cccc(Nc2c(-c3ccccc3)nc3c(C)nccn23)c1 [compound 43, (8-Methyl-2-phenyl-imidazo[1,2-a]pyrazin-3-yl)-m-tolyl-amine]	−	−	−	−	−	−	−
Cc1nccn2c(Nc3cccc(F)c3)c(-c3ccccc3)nc12 [compound 44, (3-Fluoro-phenyl)-(8-methyl-2-phenyl-imidazo[1,2-a]pyrazin-3-yl)-amine]	−	−	−	−	−	−	−
Cc1nccn2c(Nc3cccc(Cl)c3)c(-c3ccccc3)nc12 [compound 3, (3-Chloro-phenyl)-(8-methyl-2-phenyl-imidazo[1,2-a]pyrazin-3-yl)-amine]	−	−	−	−	−	−	−

Further lines, results first:

PDGFRb growth restoration (PDGFRb)	PDGFRa growth restoration (PDGFRa)	FGFR-4 growth restoration (FGFR-4)	FGFR-2 growth restoration (FGFR-2)	CSF-1R growth restoration (CSF-1R)	FGFR-1 growth restoration (FGFR-1)	KIT growth restoration (KIT)	SMILES
−	−	−	−	−	−	−	Brc1cccc(Nc2c(-c3ccccc3)nc3cnccn23)c1 [compound 14, (3-Bromo-phenyl)-(2-phenyl-imidazo[1,2-a]pyrazin-3-yl)-amine]
−	−	−	−	−	−	−	Clc1cccc(Nc2c(-c3ccccc3)nc3cnccn23)c1 [compound 35, (3-Chloro-phenyl)-(2-phenyl-imidazo[1,2-a]pyrazin-3-yl)-amine]
−	−	−	−	−	−	−	Clc1ccc(Nc2c(-c3ccccc3)nc3cnccn23)cc1 [compound 16, (4-Chloro-phenyl)-(2-phenyl-imidazo[1,2-a]pyrazin-3-yl)-amine]
−	−	−	−	−	−	−	Cc1cccc(Nc2c(-c3ccccc3)nc3cnccn23)c1 [compound 34, (2-Phenyl-imidazo[1,2-a]pyrazin-3-yl)-m-tolyl-amine]
−	−	−	−	−	−	−	COc1cccc(-c2nc3cnccn3c2Nc2cccc(Cl)c2)c1 [compound 7, (3-Chloro-phenyl)-[2-(3-methoxy-phenyl)-imidazo[1,2-a]pyrazin-3-yl]-amine]
